This note sets out measurements from ChEMBL document CHEMBL5512685, “Discovery of a Promising CBP/p300 Degrader XYD129 for the Treatment of Acute Myeloid Leukemia” (J Med Chem, 2024).

Data set [1] concerns MV4-11. The data set can be described thus: Antiproliferative activity against human MV4-11 cells assessed as inhibition of cell growth incubated for 120 hrs by celltiter glo luminescence analysis. It counts as functional, cell-based. To be noted: MV4-11, 120 h.
The test system of data set [2] is KG-1. The data set can be described thus: Antiproliferative activity against human KG-1 cells assessed as inhibition of cell growth incubated for 72 hrs by celltiter glo luminescence analysis. It counts as functional, cell-based. The note with it: KG-1, 72 h. On the technique in general: ATP-based viability assays read luminescence as a measure of living cells.

The target in data set [3] is Protein cereblon (Homo sapiens, UniProt Q96SW2). In words: Inhibition of biotinylated thalidomide binding to CRBN (40 to 442 residues) (unknown origin) incubated for 1 hrs by HTRF assay.
Data set [4] is described as follows: Antiproliferative activity against human MOLM16 cells assessed as inhibition of cell growth incubated for 72 hrs by celltiter glo luminescence analysis. The data set is classed as functional, cell-based, MOLM-16. To be noted: MOLM16, 72 h.
Data set [5] in a line: Cytotoxicity against human HL7702 cells assessed as inhibition of cell growth incubated for 72 hrs by celltiter glo luminescence analysis. The note with it: HL7702 (L02) cells. The data set is classed as toxicity, cell-based.
Data set [6] concerns the target Histone acetyltransferase p300 (Homo sapiens, UniProt Q09472). In words: Inhibition of C-terminal biotinylated tetra-acetylated histone peptide H4 binding to His6-fused human p300 bromodomain (A1040 to G1161 residues) incubated for 1 hrs by HTRF assay. In general terms: In TR-FRET formats the signal depends on donor and acceptor labels being close together.
Data set [7] concerns the target CREB-binding protein (Homo sapiens, UniProt Q92793). The data set can be described thus: Inhibition of C-terminal biotinylated tetra-acetylated histone peptide H4 binding to His6-fused human CBP bromodomain (R1081 to G1197 residues) incubated for 1 hrs by HTRF assay.
Data set [8] addresses T1, Protein cereblon/CREB-binding protein (Homo sapiens) (UniProt Q92793+Q96SW2). The data set can be described thus: PROTAC activity at CRBN/CBP in human MOLM16 cells assessed as induction of CBP degradation incubated for 24 hrs by Western blot analysis. It counts as cell-based. The note with it: dose 0-1000 nM. On the technique in general: Immunoblotting shows a protein as a band on a membrane.

In data set [9] the target is T2, Protein cereblon/Histone acetyltransferase p300 (Homo sapiens) (UniProt Q09472+Q96SW2). In words: PROTAC activity at CRBN/p300 in human MOLM16 cells assessed as induction of p300 degradation incubated for 24 hrs by Western blot analysis. It counts as cell-based. The note with it: dose 0-1000 nM.
Data set [10] has as its target T2, Protein cereblon/Histone acetyltransferase p300 (Homo sapiens). The data set can be described thus: PROTAC activity at CRBN/p300 in human MOLM16 cells assessed as induction of p300 degradation at 1000 nM incubated for 24 hrs by Western blot analysis relative to control. The data set is classed as cell-based.
Data set [11] deals with T1, Protein cereblon/CREB-binding protein (Homo sapiens). The data set can be described thus: PROTAC activity at CRBN/CBP in human MOLM16 cells assessed as induction of CBP degradation at 1000 nM incubated for 24 hrs by Western blot analysis relative to control. The data set is classed as cell-based.
The subject of data set [12] is MV4-11. In words: Potency index, ratio of Y08207 IC50 to test compound IC50 for antiproliferative activity against human MV4-11 cells assessed as inhibition of cell growth incubated for 120 hrs by celltiter glo luminescence analysis. It counts as functional.

SMILES strings stand for the structures. A value given as a limit tells only on which side of the number the result lay.

Broadly, the IC50 is the concentration that gives 50% inhibition. As for `CC(=O)c1cc(C(=O)Nc2cc(CO)cc(-c3cnn(C)c3)c2F)c2cc(OCC(=O)NCC#Cc3cccc4c3C(=O)N(C3CCC(=O)NC3=O)C4=O)ccn12` (stereo not drawn), the IC50 in data set [1] worked out at 23 µM.
The same measure, in the same setting: the value for `CC(=O)c1cc(C(=O)Nc2cc(CO)cc(-c3cnn(C)c3)c2F)c2cc(OCCCCC(=O)NCC#Cc3cccc4c3C(=O)N(C3CCC(=O)NC3=O)C4=O)ccn12` (stereo not drawn) was 21.2 µM; that for `CC(=O)c1cc(C(=O)Nc2cc(CO)cc(-c3cnn(C)c3)c2F)c2cc(OCCCC(=O)NCCNc3ccc4c(c3)C(=O)N(C3CCC(=O)NC3=O)C4=O)ccn12` (stereo not drawn) was 17.8 µM.
As for `CC(=O)c1cc(C(=O)Nc2cc(CO)cc(-c3cnn(C)c3)c2F)c2cc(OCCCCCC(=O)NCC#Cc3cccc4c3C(=O)N(C3CCC(=O)NC3=O)C4=O)ccn12` (stereo not drawn), the half-maximal inhibitory concentration (IC50) in data set [1] came out at 13 µM.
Consider `CO[C@H]1CC[C@H](n2c([C@@H]3CCCC(=O)N3c3ccc(F)c(F)c3)nc3cc(-c4c(C)noc4C)ccc32)CC1` [INOBRODIB], for which the IC50 is 17 µM in data set [2], greater than 100 µM in [3], 0.37 µM in data set [4] and 0.014 µM in data set [1]. The IC50 at 72 h in data set [5] came out at 20 µM.
Consider `CC(=O)c1cc(C(=O)Nc2cc(CO)cc(-c3cnn(C)c3)c2F)c2cc(OC3CCN(C(=O)CCOCCOCCNc4cccc5c4C(=O)N(C4CCC(=O)NC4=O)C5=O)CC3)ccn12` (stereo not drawn), for which, in data set [1], the IC50 is 11.1 µM.
On to `CC(=O)c1cc(C(=O)Nc2cc(CO)cc(-c3cnn(C)c3)c2F)c2cc(O)ccn12`, for which the IC50 in data set [2] was 11.6 µM; in data set [6], 0.007 µM; in data set [3], greater than 100 µM; in [4], 13.5 µM; in data set [1], 6.37 µM; in [7], 0.006 µM. The IC50 at 72 h in data set [5] turned out to be 38.3 µM.
For the compound `CC(=O)c1cc(C(=O)Nc2cc(CO)cc(-c3cnn(C)c3)c2F)c2cc(OCC(=O)NCCNc3cccc4c3C(=O)N(C3CCC(=O)NC3=O)C4=O)ccn12` (stereo not drawn), in data set [1], the IC50 was greater than 20 µM.
As for `CC(=O)c1cc(C(=O)Nc2cc(CO)cc(-c3cnn(C)c3)c2F)c2cc(OC3CCN(C(=O)CCOCCOCCOCCOCCNc4cccc5c4C(=O)N(C4CCC(=O)NC4=O)C5=O)CC3)ccn12` (stereo not drawn), the half-inhibitory concentration (IC50) in data set [1] stood at 4.89 µM.
In the case of `CC(=O)c1cc(C(=O)Nc2cc(CO)cc(-c3cnn(C)c3)c2F)c2cc(OCCCCCCC(=O)NCCCc3cccc4c3C(=O)N(C3CCC(=O)NC3=O)C4=O)ccn12` (stereo not drawn), the IC50 came to 0.051 µM in data set [6], 7 µM in data set [3], 1.03 µM in [1] and 0.036 µM in data set [7].
Regarding `CC(=O)c1cc(C(=O)Nc2cc(CO)cc(-c3cnn(C)c3)c2F)c2cc(OCCCC(=O)NCCNc3cccc4c3C(=O)N(C3CCC(=O)NC3=O)C4=O)ccn12` (stereo not drawn), the IC50 worked out at 3.95 µM in data set [2]; 0.077 µM in data set [6]; 1.1 µM in data set [3]; 0.021 µM in [4]; 0.42 µM in data set [1]; 0.073 µM in [7]. Besides, the Activity entry is “Dose-Dependent Effect” in data set [8], “Dose-Dependent Effect” in [9], 100% in data set [10] and 100% in data set [11]. In addition, the IC50 at 72 h in data set [5] was greater than 100 µM.
With `CC(=O)c1cc(C(=O)Nc2cc(CO)cc(-c3cnn(C)c3)c2F)c2cc(OCCCCCCCC(=O)NCC#Cc3cccc4c3C(=O)N(C3CCC(=O)NC3=O)C4=O)ccn12` (stereo not drawn), the IC50 in [1] came to 3.25 µM. Also, the “Ratio IC50” value in data set [12] is listed as roughly 2.
Take `CC(=O)c1cc(C(=O)Nc2cc(CO)cc(-c3cnn(C)c3)c2F)c2cc(OCC(=O)NCCCNc3cccc4c3C(=O)N(C3CCC(=O)NC3=O)C4=O)ccn12` (stereo not drawn): the IC50 in [1] worked out at 1.06 µM. In addition, the “Ratio IC50” value in [12] stood at 6.
For `CC(=O)c1cc(C(=O)Nc2cc(CO)cc(-c3cnn(C)c3)c2F)c2cc(OCCCCCCC(=O)NCC#Cc3cccc4c3C(=O)N(C3CCC(=O)NC3=O)C4=O)ccn12` (stereo not drawn) the same measures were 3.93 µM and roughly 2.
With `CC(=O)c1cc(C(=O)Nc2cc(CO)cc(-c3cnn(C)c3)c2F)c2cc(OCCCC(=O)NCCCCCCCCNc3cccc4c3C(=O)N(C3CCC(=O)NC3=O)C4=O)ccn12` (stereo not drawn), the IC50 in [1] was greater than 20 µM.
Still for that read-out and setting: the same measure for `CC(=O)c1cc(C(=O)Nc2cc(CO)cc(-c3cnn(C)c3)c2F)c2cc(OCCCC(=O)NCCCCCCNc3cccc4c3C(=O)N(C3CCC(=O)NC3=O)C4=O)ccn12` (stereo not drawn): greater than 20 µM; for `CC(=O)c1cc(C(=O)Nc2cc(CO)cc(-c3cnn(C)c3)c2F)c2cc(OCC(=O)NCCCc3cccc4c3C(=O)N(C3CCC(=O)NC3=O)C4=O)ccn12` (stereo not drawn): 7.51 µM; for `CC(=O)c1cc(C(=O)Nc2cc(CO)cc(-c3cnn(C)c3)c2F)c2cc(OCCCC(=O)NCC#Cc3cccc4c3C(=O)N(C3CCC(=O)NC3=O)C4=O)ccn12` (stereo not drawn): 23.2 µM.
On the same count and under the same terms, the same measure for `CC(=O)c1cc(C(=O)Nc2cc(CO)cc(-c3cnn(C)c3)c2F)c2cc(OCC(=O)NCCCCNc3ccc4c(c3)C(=O)N(C3CCC(=O)NC3=O)C4=O)ccn12` (stereo not drawn): greater than 20 µM.
Turning to `CC(=O)c1cc(C(=O)Nc2cc(CO)cc(-c3cnn(C)c3)c2F)c2cc(OCCCCCCCC(=O)NCCCc3cccc4c3C(=O)N(C3CCC(=O)NC3=O)C4=O)ccn12` (stereo not drawn), in data set [1], the IC50 came out at 1.25 µM.
The same measure, in the same setting: the same measure for `CC(=O)c1cc(C(=O)Nc2cc(CO)cc(-c3cnn(C)c3)c2F)c2cc(OCCCC(=O)NCCCc3cccc4c3C(=O)N(C3CCC(=O)NC3=O)C4=O)ccn12` (stereo not drawn): 1.48 µM.
`CC(=O)c1cc(C(=O)Nc2cc(CO)cc(-c3cnn(C)c3)c2F)c2cc(OCCCCCC(=O)NCCCc3cccc4c3C(=O)N(C3CCC(=O)NC3=O)C4=O)ccn12` (stereo not drawn): the IC50 was 4.77 µM in [2]; 0.046 µM in data set [6]; 0.79 µM in data set [3]; 0.054 µM in data set [4]; 0.46 µM in data set [1]; 0.068 µM in data set [7]. Also, in data set [12], the “Ratio IC50” value is given as roughly 8. Besides, in data set [5], the IC50 at 72 h was greater than 100 µM.
With `CC(=O)c1cc(C(=O)Nc2cc(CO)cc(-c3cnn(C)c3)c2F)c2cc(OCCCCC(=O)NCCCc3cccc4c3C(=O)N(C3CCC(=O)NC3=O)C4=O)ccn12` (stereo not drawn), the half-inhibitory concentration (IC50) in data set [6] is 0.022 µM; in [3], 0.47 µM; in data set [1] it was 0.75 µM; in data set [7] it was 0.02 µM. Also, the “Ratio IC50” value in data set [12] is roughly 8.
For `CC(=O)c1cc(C(=O)Nc2cc(CO)cc(-c3cnn(C)c3)c2F)c2cc(OC3CCN(C(=O)CCOCCOCCOCCNc4cccc5c4C(=O)N(C4CCC(=O)NC4=O)C5=O)CC3)ccn12` (stereo not drawn), the IC50 in data set [1] stood at 5.39 µM.
On the same count and under the same terms, the value for `CC(=O)c1cc(C(=O)Nc2cc(CO)cc(-c3cnn(C)c3)c2F)c2cc(OC3CCN(C(=O)CCOCCNc4cccc5c4C(=O)N(C4CCC(=O)NC4=O)C5=O)CC3)ccn12` (stereo not drawn) was 8.03 µM.
Same read-out and setting: the same measure for `CC(=O)c1cc(C(=O)Nc2cc(CO)cc(-c3cnn(C)c3)c2F)c2cc(OCCCC(=O)NCCCCNc3cccc4c3C(=O)N(C3CCC(=O)NC3=O)C4=O)ccn12` (stereo not drawn): greater than 20 µM.
